Laboratory results reported in ChEMBL document CHEMBL5150064 (J Med Chem, 2022).
In brackets after ≈: the same amount, converted by molar mass. Activity calls are given as the source filed them. The calls are words filed in the database; no cut-off is given here.

What was measured:
[1] = Plasma protein binding in rat assessed as unbound fraction at 5 uM incubated for 4 hrs by equllibrium dialysis method; assay type: ADME, cell-free
[2] = molecular target: T1, Cytochrome P450 1A2 (Homo sapiens, UniProt P05177); test: Inhibition of CYP1A2 (unknown origin); assay type: ADME
T1 sequence (P05177 whole entry): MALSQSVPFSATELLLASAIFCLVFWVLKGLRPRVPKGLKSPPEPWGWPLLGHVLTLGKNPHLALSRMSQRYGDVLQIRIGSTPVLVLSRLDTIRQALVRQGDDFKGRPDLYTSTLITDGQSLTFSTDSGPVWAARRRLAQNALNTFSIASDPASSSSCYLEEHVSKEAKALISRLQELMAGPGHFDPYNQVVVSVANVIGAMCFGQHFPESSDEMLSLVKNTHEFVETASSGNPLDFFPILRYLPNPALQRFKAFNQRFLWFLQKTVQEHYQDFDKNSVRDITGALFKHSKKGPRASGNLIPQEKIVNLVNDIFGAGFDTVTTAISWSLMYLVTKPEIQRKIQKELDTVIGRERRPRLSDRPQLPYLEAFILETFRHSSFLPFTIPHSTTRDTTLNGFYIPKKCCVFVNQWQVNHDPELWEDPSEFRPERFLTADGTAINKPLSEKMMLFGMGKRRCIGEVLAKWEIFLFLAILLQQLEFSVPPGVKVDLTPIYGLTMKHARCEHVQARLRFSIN

[3] = molecular target: Cytochrome P450 2C9 (Homo sapiens, UniProt P11712); test: Inhibition of CYP2C9 (unknown origin); assay type: ADME
Sequence of Cytochrome P450 2C9 (P11712 whole entry): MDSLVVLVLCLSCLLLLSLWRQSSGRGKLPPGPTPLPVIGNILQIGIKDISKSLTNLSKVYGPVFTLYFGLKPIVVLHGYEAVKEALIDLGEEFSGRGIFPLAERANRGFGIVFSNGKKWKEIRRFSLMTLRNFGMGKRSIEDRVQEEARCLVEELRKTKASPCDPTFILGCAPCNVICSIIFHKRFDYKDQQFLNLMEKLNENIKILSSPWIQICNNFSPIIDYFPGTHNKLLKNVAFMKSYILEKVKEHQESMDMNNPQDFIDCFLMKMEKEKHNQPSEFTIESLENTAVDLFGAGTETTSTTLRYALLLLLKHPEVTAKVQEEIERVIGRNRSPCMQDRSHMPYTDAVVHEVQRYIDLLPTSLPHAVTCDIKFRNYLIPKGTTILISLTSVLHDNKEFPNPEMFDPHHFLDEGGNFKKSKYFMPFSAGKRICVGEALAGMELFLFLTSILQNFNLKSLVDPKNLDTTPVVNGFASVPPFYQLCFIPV

[4] = tested on: Mus musculus; test: In vivo PI3K degradation in human HCC1954 cells xenografted in mouse at 50 mg/kg, po; assay type: functional, organism-based
[5] = Thermodynamic solubility of the compound in FaSSGF; assay type: physicochemical; settings: read-out: Therm_solubility
[6] = tested on: HCC1954; test: Antitumor activity against human HCC1954 cells xenografted in mouse assessed as tumor growth inhibition at 50 mg/kg, po QD; assay type: functional; settings: read-out: TGI
[7] = tested on: HCC1954; test: Antitumor activity against human HCC1954 cells xenografted in mouse assessed as tumor growth inhibition at 25 mg/kg, po QD; assay type: functional; settings: read-out: TGI
[8] = molecular target: T2, Phosphatidylinositol 4,5-bisphosphate 3-kinase catalytic subunit delta isoform (Homo sapiens) (UniProt O00329); test: Inhibition of PI3Kdelta in human B-cells assessed as reduction in CD69 expression preincubated for 1 hr followed by IgM stimulation for 18 hrs by flow cytometry analysis; assay type: cell-based; settings: B-cell
T2 sequence (whole entry): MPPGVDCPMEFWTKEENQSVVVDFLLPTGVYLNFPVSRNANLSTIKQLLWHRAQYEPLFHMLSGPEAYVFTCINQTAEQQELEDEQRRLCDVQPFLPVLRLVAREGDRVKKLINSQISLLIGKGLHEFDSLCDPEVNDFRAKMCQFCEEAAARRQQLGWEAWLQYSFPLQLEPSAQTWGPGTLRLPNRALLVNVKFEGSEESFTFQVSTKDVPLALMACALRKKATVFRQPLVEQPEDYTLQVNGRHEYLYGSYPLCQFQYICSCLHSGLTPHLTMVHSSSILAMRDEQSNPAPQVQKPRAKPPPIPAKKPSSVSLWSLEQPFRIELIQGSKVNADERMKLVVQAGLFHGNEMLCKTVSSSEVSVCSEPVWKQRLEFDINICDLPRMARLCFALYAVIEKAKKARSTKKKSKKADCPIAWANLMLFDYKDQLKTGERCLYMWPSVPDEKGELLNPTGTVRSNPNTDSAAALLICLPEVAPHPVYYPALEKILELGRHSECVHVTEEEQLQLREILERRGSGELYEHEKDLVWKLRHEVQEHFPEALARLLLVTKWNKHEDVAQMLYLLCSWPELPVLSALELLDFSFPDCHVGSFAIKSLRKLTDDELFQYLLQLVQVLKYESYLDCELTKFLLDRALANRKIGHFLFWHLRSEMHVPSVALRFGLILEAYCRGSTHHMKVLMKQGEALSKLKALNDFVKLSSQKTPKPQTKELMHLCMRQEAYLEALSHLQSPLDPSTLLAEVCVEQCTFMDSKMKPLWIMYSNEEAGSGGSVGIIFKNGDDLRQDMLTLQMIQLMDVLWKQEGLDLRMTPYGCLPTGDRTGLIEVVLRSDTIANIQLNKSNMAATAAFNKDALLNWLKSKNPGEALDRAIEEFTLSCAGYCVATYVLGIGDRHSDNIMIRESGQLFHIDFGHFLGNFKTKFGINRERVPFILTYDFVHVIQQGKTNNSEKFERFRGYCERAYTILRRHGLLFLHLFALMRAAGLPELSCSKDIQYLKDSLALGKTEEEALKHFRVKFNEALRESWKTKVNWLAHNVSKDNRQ

[9] = Clearance in SCID-Beige mouse plasma at 1 mg/kg, iv measured upto 24 hrs by LC-MS/MS analysis; assay type: ADME, organism-based
[10] = tested on: Mus musculus; test: In vivo inhibition of PI3K in human HCC1954 cells xenografted in po dosed mouse; assay type: functional, organism-based; settings: DDE = dose-dependent effect
[11] = tested on: Phosphatidylinositol 4,5-bisphosphate 3-kinase catalytic subunit alpha isoform (Homo sapiens), P42336 [H1047R]; test: Induction of P110alpha H1047R mutant degradation in human HCC1954 cells at 0.012 to 1 uM after 24 hrs; assay type: cell-based; settings: dose 0.012-1 µM
Sequence of Phosphatidylinositol 4,5-bisphosphate 3-kinase catalytic subunit alpha isoform (Homo sapiens), P42336 [H1047R] (P42336 whole entry H1047R, canonical isoform): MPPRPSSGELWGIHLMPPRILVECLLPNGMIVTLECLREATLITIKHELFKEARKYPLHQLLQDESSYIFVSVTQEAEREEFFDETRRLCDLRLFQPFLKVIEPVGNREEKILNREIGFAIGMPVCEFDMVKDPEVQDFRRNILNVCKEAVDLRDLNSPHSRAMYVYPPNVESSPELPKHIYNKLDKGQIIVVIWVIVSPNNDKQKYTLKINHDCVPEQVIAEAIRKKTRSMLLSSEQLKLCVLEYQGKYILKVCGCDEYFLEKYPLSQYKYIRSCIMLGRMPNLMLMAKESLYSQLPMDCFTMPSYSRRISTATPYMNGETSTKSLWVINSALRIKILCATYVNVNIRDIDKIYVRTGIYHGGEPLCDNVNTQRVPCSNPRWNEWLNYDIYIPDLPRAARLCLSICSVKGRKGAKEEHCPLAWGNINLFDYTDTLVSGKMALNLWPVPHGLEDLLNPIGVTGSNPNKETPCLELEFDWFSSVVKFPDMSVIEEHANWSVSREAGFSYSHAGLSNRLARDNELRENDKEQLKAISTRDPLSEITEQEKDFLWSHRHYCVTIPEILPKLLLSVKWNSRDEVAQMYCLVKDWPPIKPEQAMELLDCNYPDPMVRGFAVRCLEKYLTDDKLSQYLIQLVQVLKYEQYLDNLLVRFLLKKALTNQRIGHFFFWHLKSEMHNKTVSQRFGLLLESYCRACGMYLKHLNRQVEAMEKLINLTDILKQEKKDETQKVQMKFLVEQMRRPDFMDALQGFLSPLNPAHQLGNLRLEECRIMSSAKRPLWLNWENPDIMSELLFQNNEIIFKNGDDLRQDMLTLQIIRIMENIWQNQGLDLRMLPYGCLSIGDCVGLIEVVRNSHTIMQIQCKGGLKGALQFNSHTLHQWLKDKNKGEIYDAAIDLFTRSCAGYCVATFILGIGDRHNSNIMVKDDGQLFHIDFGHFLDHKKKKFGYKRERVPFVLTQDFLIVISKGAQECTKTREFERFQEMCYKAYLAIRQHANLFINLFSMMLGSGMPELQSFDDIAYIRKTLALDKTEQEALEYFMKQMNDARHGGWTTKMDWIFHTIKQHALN

[12] = tested on: Mus musculus; test: In vivo inhibition of PI3K in human HCC1954 cells xenografted in mouse at 50 mg/kg, po; assay type: functional, organism-based; settings: TDE = time-dependent effect
[13] = Oral bioavailability in NCR nude mouse at 50 mg/kg measured upto 8 hrs by LC-MS/MS analysis; assay type: ADME, organism-based; settings: in vivo
[14] = Inhibition of PI3KC2b (unknown origin); parameters: species or system Homo sapiens
[15] = Clearance in Sprague-Dawley rat plasma at 1 mg/kg, iv measured upto 8 hrs by LC-MS/MS analysis; assay type: ADME, organism-based
[16] = AUC in NCR nude mouse at 50 mg/kg, po measured upto 8 hrs by LC-MS/MS analysis; assay type: ADME, organism-based; parameters: dose 50 mg/kg, time < 8 hrs, route po; settings: in vivo
[17] = Oral bioavailability in NCR nude mouse at 5 mg/kg measured upto 8 hrs by LC-MS/MS analysis; assay type: ADME, organism-based; settings: in vivo
[18] = molecular target: NaV1.5 (Homo sapiens, UniProt Q14524); test: Inhibition of human NaV1.5 at 10 uM relative to control
Sequence of NaV1.5 (Q14524 whole entry): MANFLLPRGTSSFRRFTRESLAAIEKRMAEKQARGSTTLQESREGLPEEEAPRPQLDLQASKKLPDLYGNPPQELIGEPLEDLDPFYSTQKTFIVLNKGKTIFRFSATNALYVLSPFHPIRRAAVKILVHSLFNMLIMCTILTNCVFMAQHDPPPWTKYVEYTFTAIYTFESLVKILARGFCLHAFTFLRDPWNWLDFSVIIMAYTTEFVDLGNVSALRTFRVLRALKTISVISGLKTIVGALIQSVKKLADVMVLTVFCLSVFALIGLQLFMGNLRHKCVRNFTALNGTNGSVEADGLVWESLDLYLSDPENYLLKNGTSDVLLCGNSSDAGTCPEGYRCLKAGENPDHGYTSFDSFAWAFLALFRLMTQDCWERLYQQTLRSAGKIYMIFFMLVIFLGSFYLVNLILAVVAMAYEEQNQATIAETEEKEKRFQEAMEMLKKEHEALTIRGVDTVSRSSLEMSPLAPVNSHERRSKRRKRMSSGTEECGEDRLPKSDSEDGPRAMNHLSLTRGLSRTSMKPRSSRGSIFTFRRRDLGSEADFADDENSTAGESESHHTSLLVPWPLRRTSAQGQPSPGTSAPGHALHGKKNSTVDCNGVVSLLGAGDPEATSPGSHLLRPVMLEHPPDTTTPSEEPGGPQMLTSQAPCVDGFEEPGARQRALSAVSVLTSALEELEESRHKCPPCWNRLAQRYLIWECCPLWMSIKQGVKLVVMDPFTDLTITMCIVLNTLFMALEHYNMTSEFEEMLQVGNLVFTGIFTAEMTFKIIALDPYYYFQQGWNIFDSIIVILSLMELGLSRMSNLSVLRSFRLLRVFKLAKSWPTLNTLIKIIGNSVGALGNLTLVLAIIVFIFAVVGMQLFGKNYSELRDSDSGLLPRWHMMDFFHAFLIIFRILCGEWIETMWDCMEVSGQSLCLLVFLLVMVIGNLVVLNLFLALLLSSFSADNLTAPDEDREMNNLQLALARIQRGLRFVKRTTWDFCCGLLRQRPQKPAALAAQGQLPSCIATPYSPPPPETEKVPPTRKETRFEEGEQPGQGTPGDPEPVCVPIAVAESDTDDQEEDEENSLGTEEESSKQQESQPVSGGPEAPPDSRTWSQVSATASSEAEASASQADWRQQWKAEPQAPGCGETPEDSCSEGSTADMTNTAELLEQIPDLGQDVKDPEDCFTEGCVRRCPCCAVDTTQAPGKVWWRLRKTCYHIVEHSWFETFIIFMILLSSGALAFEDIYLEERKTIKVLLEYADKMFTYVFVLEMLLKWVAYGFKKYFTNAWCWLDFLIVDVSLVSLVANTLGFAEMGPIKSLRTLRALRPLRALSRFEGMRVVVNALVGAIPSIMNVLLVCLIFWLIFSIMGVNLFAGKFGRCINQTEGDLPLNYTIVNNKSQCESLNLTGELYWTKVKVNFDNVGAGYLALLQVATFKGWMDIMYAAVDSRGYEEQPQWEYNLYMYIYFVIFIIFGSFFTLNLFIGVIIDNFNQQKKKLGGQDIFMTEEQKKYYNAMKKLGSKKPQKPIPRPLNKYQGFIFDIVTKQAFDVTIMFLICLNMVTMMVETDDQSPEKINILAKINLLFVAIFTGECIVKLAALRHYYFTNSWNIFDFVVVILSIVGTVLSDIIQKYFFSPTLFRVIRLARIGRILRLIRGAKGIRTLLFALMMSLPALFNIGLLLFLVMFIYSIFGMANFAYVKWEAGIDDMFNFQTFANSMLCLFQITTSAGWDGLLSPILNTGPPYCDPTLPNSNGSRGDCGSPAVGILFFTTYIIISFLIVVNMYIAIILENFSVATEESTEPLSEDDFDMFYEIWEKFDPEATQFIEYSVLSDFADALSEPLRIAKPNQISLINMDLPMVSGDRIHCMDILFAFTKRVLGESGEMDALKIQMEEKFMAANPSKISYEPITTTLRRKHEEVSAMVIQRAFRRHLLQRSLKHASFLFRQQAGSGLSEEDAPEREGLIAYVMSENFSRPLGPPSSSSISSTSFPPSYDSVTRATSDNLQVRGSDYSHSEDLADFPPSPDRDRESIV

[19] = AUC in NCR nude mouse at 5 mg/kg, po measured upto 8 hrs by LC-MS/MS analysis; assay type: ADME, organism-based; parameters: time < 8 hrs, dose 5 mg/kg, route po; settings: in vivo
[20] = tested on: MCF7; test: Antiproliferative activity against human MCF7 cells assessed as reduction in cell viability incubated for 4 days by Celltiter-Glo luminescence assay; assay type: functional, cell-based; settings: MCF7, 96 h
[21] = Plasma protein binding in mouse assessed as unbound fraction at 5 uM incubated for 4 hrs by equllibrium dialysis method; assay type: ADME, cell-free
[22] = Thermodynamic aqueous solubility of the compound at pH 7.4; assay type: physicochemical; settings: read-out: Therm_solubility
[23] = molecular target: Phosphatidylinositol 4,5-bisphosphate 3-kinase catalytic subunit alpha isoform (Homo sapiens, UniProt P42336, H1047R)
Sequence of Phosphatidylinositol 4,5-bisphosphate 3-kinase catalytic subunit alpha isoform (P42336 whole entry H1047R, canonical isoform): as the sequence (P42336 whole entry H1047R, canonical isoform) above

[24] = tested on: HCC1954; test: Antitumor activity against human HCC1954 cells xenografted in mouse assessed as increase in cleaved PARP level at 50 mg/kg, po; assay type: functional, organism-based
[25] = Thermodynamic aqueous solubility of the compound at pH 2; assay type: physicochemical; settings: read-out: Therm_solubility

## C[C@H](Nc1ccc2c(c1)OCCn1cc(N3C(=O)OC[C@H]3C(F)F)nc1-2)C(N)=O [INAVOLISIB]
[1]
  fraction unbound at 4 h, 5 µM: 0.608
[2]
  IC50: > 10000 nM
[3]
  IC50: > 10000 nM
[4]
  inhibition: Active
[5]
  solubility thermodynamic: 1600 µg/mL (≈ 3930 µM)
[6]
  inhibition in vivo at 50 mg/kg: 149%
[7]
  inhibition in vivo at 25 mg/kg: 140%
[8]
  IC90: 276 nM
[9]
  clearance: 37 mL/min/kg
[10]
  inhibition: Dde
[11]
  Activity: Active
[12]
  inhibition: Tde
[13]
  bioavailability: 59%
[14]
  IC50: 56 nM
[15]
  clearance: 86 mL/min/kg
[16]
  AUC at 8 h: 32.9 µM·h
[17]
  bioavailability: 45%
[18]
  inhibition at 10 µM: < 20%
[19]
  AUC at 8 h: 2.5 µM·h
[20]
  EC50: 30 nM
[21]
  fraction unbound at 4 h, 5 µM: 0.261
[22]
  solubility thermodynamic: 38 µg/mL (≈ 93.3 µM)
[23]
  EC50: 19 nM
[24]
  Activity: Active
[25]
  solubility thermodynamic: 615 µg/mL (≈ 1510 µM)
